Key:
[1] = system: C. glabrata; experiment: Mature biofilm cell survival, serial dilution plating on YPD; type: cell-based, Candida glabrata; details: 0.2 and 0.5 g/ml, 5 h of incubation, 37° C
Procedure: The plated cells were incubated for 24 h at 37° C. and visually analyzed. The cells from the mature biofilm treated with water were used as a control. […] At the concentrations of 0.2 and 0.5 g/ml after 5 h of incubation the cell viability was decreased by about 100 times for both C. albicans and C. glabrata.

[2] = system: Acetinobacter baumanii CCUG 57035; experiment: MIC microdilution test; type: cell-based; details: CCUG 57035, aerobic
Procedure: (§1) The test substance solution was prepared aseptically at 1 g/ml in sterile H2O. […] After 48 and 72 hours of incubation, the OD was measured and ocular assessments were done. […] All strains were recovered from microbanks and streak and subculture plates were made. The aerobes on TSA plates, the fastidious aerobes on horse blood plates and the anaerobe on FAA plates. […] At the time of testing, loopfuls of colonies selected from 18- to 24-hour agar plates for the aerobes and fastidious aerobes were suspended in 5 ml saline in 10 ml tubes containing 10 glass beads a 3 mm in diameter. […] The cell suspensions were then vortexed vigorously for 1 minute to obtain a turbid suspension. Each suspension of the aerobes and fastidious aerobes was adjusted to equal OD 0.28 at 475 nm using a spectrophotometer, which correlates approximately to 1-3×10^8 CFU/ml with most species. For the anaerobe, the OD measurement turned out to be difficult due to the use of blood in the culture medium. […] The aerobes and fastidious aerobes were further diluted in saline 10 times so that the inoculum concentration equaled to […]. The anaerobe was not diluted but used directly as is. The different aerobic and fastidious aerobic bacterial suspensions were transferred to respective wells of a 96 well plate. A. baumannii, E. coli, and P. aeruginosa were placed in one row, the Staphylococci spp. were placed in a second row, and the fastidious aerobes were placed in a third row of the plate. The anaerobe was transferred from a 25 ml multichannel pipette reservoir. The Microdilution Preparations and the MIC tests were performed as in example 13.

[3] = system: Streptococcus agalactiae CCUG 29376; experiment: MIC microdilution test; type: cell-based; details: CCUG 29376, 5% CO2
Procedure: as §1

[4] = system: Staphylococcus epidermidis CCUG 23118; experiment: MIC microdilution test; type: cell-based; details: CCUG 23118, aerobic
Procedure: as §1

[5] = system: Streptococcus pyogenes CCUG 47803/ATCC 700294; experiment: MIC microdilution test; type: cell-based; details: CCUG 47803, 5% CO2
Procedure: as §1

[6] = system: Porphyromonas gingivalis CCUG 25893/ATCC 33277; experiment: MIC microdilution test; type: cell-based; details: CCUG 25893, strict anaerobic conditions
Procedure: as §1

[7] = system: Escherichia coli CCUG 3274/ATCC 10536; experiment: MIC microdilution test; type: cell-based; details: CCUG 3274, aerobic
Procedure: as §1

[8] = system: Pseudomonas aeruginosa (PAO1) CCUG 56489/ATCC 15692; experiment: MIC microdilution test; type: cell-based; details: CCUG 56489, aerobic
Procedure: as §1

[9] = system: Beta-Hemolytic Streptococci Groups C Streptococcus dysgalactiae ss equisimilis CCUG 4211; experiment: MIC microdilution test; type: cell-based; details: CCUG 4211, 5% CO2
Procedure: as §1

[10] = system: Staphylococcus aureus CCUG 15915/ATCC 29213; experiment: MIC microdilution test; type: cell-based; details: CCUG 15915, aerobic
Procedure: as §1

[11] = system: Beta-Hemolytic Streptococci Groups G Streptococcus dysgalactiae ss equisimilis CCUG 7975; experiment: MIC microdilution test; type: cell-based; details: CCUG7975, 5% CO2
Procedure: as §1

MIC (g/ml) [2]: 0.0031 g/ml
MIC (g/ml) [4]: 0.0031 g/ml
MIC (g/ml) [5]: 0.0031 g/ml
MIC (g/ml) [6]: 0.0031 g/ml
MIC (g/ml) [7]: 0.0063 g/ml
MIC (g/ml) [8]: 0.0031 g/ml
MIC (g/ml) [10]: 0.0063 g/ml
SMILES: O=C1O[C@H](CO)[C@@H](O)[C@H](O)[C@H]1O [GDA, glucono-δ-lactone]
decrease of cell viability [1]: about 100 times
MIC (g/ml) [3]: 0.0031 g/ml
MIC (g/ml) [9]: 0.0016 g/ml
MIC (g/ml) [11]: 0.0031 g/ml
